Test results published in patent US20160083424A1, “COMPOSITIONS AND METHODS FOR TARGETING ANTIGEN-PRESENTING CELLS” (OSLO UNIVERSITETSSYKEHUS HF, priority 2013, published 2016).

Tests used:
PBMCs [1] = test: Autologous stimulation of PBMCs with pp65 targeted peptides, [3H] thymidine incorporation; type: cell-based, human; conditions: whole PBMCs, peptides at 4° C., 5 days at 37° C.
Experimental: (§1) PBMC from HLA-A2/CMV+ donors were thawed, washed and then incubated with the peptides (5 μg/ml) for 60 min at 4° C. Subsequently, the cells were washed twice and then plated at 2×10^5 cells per well in 96-well tissue culture plate. Cells were cultured for 5 days and subsequently they were pulsed with [^3H] thymidine and harvested 16 h later. In some experiments, the cells were cultured for 12 days and then stained with dextramers specific for pp65 NLVPMVATV (SEQ ID NO:19) epitope. Monocyte-depleted PBMCs were also used. To analyze primary immune responses against pp65 protein, PBMCs from HLA-A2+/CMV-negative donors were used. Autologous DCs were incubated with either NW-pp65 or GA-pp65 peptide (5 μg/ml) at 4° C. for 1 h, followed by three washes to remove unbound peptides. Subsequently, the cells were incubated with CD45RO-depleted PBMC (responder cells) and co-cultured for 10 days at ratio 1/10 (DC to responder cells) in X-vivo 15 medium supplemented with 10 ng/ml human IL-7 for 10 days. After 2 rounds of stimulation (8 days each) with autologous DC loaded with peptides, the cells were stained with dextramers specific for pp65 NLVPMVATV (SEQ ID NO:19) epitope. To test spontaneous uptake of peptides by DCs, PBMCs from HLA-A2+/CMV positive donors were incubated at 37° C. with various concentrations of untargeted or targeted pp65 peptide for 90 min. […]

PBMCs [2] = test: Targeted vs spontaneous uptake of pp65 peptides at 37° C., dextramer staining; type: cell-based, human; conditions: PBMCs incubated at 37° C., 12 days, relative to untargeted peptide, particularly at lower peptide concentrations
Experimental: as §1

[3] = test system: pp65-specific naïve T cells; test: Induction of CMV-pp65-specific T cells from naive donor repertoire, dextramer staining; type: cell-based, human; conditions: CD45RO-depleted PBMCs, HLA-A2+/CMV negative donors, IL-7, representative example
Experimental: as §1, with “days.” for “days. After 2 rounds of stimulation (8 days each) with autologous DC loaded with peptides, the cells were stained with dextramers specific for pp65 NLVPMVATV (SEQ ID NO:19) epitope. To test spontaneous uptake of peptides by DCs, PBMCs from HLA-A2+/CMV positive donors were incubated at 37° C. with various concentrations of untargeted or targeted pp65 peptide for 90 min.”
Dextramers with CMV (NLVPMVATV) (SEQ ID NO:19) and HIV (ILKEPVHGV) (SEQ ID NO:22) HLA-A2 specific antigens were obtained from Immudex (Copenhagen, Denmark). […] Cells were washed and resuspended in SB containing 1% paraformaldehyd and analyzed on a BD SLR II flow cytometer. The data were analyzed using FCS Express (De Novo Software, Los Angeles, Calif., USA). […]

[4] = test system: PBMC cultures from CMV-positive donors; test: IFN-γ production in PBMC cultures; type: cell-based, human
Experimental: (A) PBMCs from HLA-A2+/CMV-positive donors were incubated with the indicated fusion peptides for 60 min at 4° C., washed and then incubated at 37° C. for […]. T-cell proliferation was monitored by thymidine incorporation. (B) Dextramer staining of CD8 T cells against NLVPMVATV (SEQ ID NO:19) epitope. (C) As in A and B, but monocyte-depleted PBMCs were used. (D) INF-γ and IL-10 levels in PBMC culture supernatants determined by ELISA.
Next, the immunostimulatory potential of the NW-pp65 fusion peptide was evaluated by assessing its ability to stimulate the overall IFN-γ and IL-10 production in PBMC cultures from CMV-positive donors (FIG. 8D).

iDCs [5] = test: Peptide binding and internalization by fluorescence microscopy; type: cell-based, human; conditions: 37° C.
Experimental: Then the medium was replaced with fresh medium and the cells were incubated with the peptides (5 μg/ml) for 60 min at 37° C. followed by 5 min incubation with Hoechst 33342 (Invitrogen Dynal AS, Oslo, Norway). The cells were washed twice with PBS and fixed with 4% paraformaldehyde for 15 min at 4° C. After washing, slides were covered with Dako cytomation fluorescent mounting medium and then images were taken with either epifluorescence (Leica DM RHC, Leica Microscopy As, Oslo, Norway) or confocal microscopy (Zeiss LSM 510, […]).

[6] = test system: CD8 T cells against NLVPMVATV epitope; test: Dextramer staining of CD8 T cells after PBMC stimulation with pp65 peptides; type: cell-based, human
Experimental: PBMC from HLA-A2/CMV+ donors were thawed, washed and then incubated with the peptides (5 μg/ml) for 60 min at 4° C. Subsequently, the cells were washed twice and then plated at 2×10^5 cells per well in 96-well tissue culture plate. Cells were cultured for 5 days and subsequently they were pulsed with [^3H] thymidine and harvested 16 h later. In some experiments, the cells were cultured for 12 days and then stained with dextramers specific for pp65 NLVPMVATV (SEQ ID NO:19) epitope. Monocyte-depleted PBMCs were also used. To analyze primary immune responses against pp65 protein, PBMCs from HLA-A2+/CMV-negative donors were used. Autologous DCs were incubated with either NW-pp65 or GA-pp65 peptide (5 μg/ml) at 4° C. for 1 h, followed by three washes to remove unbound peptides. Subsequently, the cells were incubated with CD45RO-depleted PBMC (responder cells) and co-cultured for 10 days at ratio 1/10 (DC to responder cells) in X-vivo 15 medium supplemented with 10 ng/ml human IL-7 for 10 days. After 2 rounds of stimulation (8 days each) with autologous DC loaded with peptides, the cells were stained with dextramers specific for pp65 NLVPMVATV (SEQ ID NO:19) epitope. To test spontaneous uptake of peptides by DCs, PBMCs from HLA-A2+/CMV positive donors were incubated at 37° C. with various concentrations of untargeted or targeted pp65 peptide for 90 min. Subsequently, the cells were washed to remove unbound peptides and cultured at 37° C. for 12 days and then stained with dextramers specific for pp65 NLVPMVATV (SEQ ID NO:19) epitope.
Dextramers with CMV (NLVPMVATV) (SEQ ID NO:19) and HIV (ILKEPVHGV) (SEQ ID NO:22) HLA-A2 specific antigens were obtained from Immudex (Copenhagen, Denmark). Antibodies against human CD8, CD19 and CD56 were obtained from eBioscience (San Diego, Calif., USA). Briefly, around 10^6 cells were washed and resuspended in 50 μl staining buffer SB (PBS with 0.1% human serum albumin and 0.1% NaN3) containing 1 mg/ml aggregated α-globulin and then stained with dextramer for 10 min in the dark at room temperature. Subsequently, antibodies against CD8, CD19 and CD56 were added and incubation continued for additional 20 min. Cells were washed and resuspended in SB containing 1% paraformaldehyd and analyzed on a BD SLR II flow cytometer. The data were analyzed using FCS Express (De Novo Software, Los Angeles, Calif., USA).
Monocytes have the capacity to differentiate into macrophages or inflammatory DCs in-vitro and in-vivo (Auffray et al., (2009) Annu Rev. Immunol. 27, 669-92). Given that the NW peptide bound to blood monocytes, it was investigated whether this binding affects T-cell activation. Therefore, proliferation assays were performed with whole PBMCs. […]

iDCs [7] = test: Peptide binding by flow cytometry; set-up: species or system human; conditions: iDCs
Experimental: The cells were seeded onto 24-well plate (3×10^5/well/0.5 ml) in X-vivo 15 medium and incubated overnight at 37° C. Subsequently, they were incubated with 6IAF-conjugated peptides (5 μg/ml) for 30 min at 37° C., gently scraped, washed 3 times and then analyzed by flow cytometry. Binding was also performed at 4° C.

Sequence: NWYLPWLGTNDWGCFTWPPWQAGILARNLVPMVATVQGQNLKYQEFFWDANDIYRIFAEL [NW-60-mer, 48-mer CMV pp65 peptide fused to NW peptide]
- T-cell proliferation ([3H]-thymidine) (PBMCs [1]): stimulated T-cell proliferation
- expansion of CD8 T cells after uptake at 37° C. (PBMCs [2]): significant expansion of CD8 T cells
- pp65-specific naïve T cells (dextramer staining) [3]: 0.22%
- total amounts of secreted IFN-γ ([4]; ELISA of PBMC culture supernatants, relative to untargeted peptide, n=4): significant increase
- proportion of CD8 and CD4 T cells that produced IFN-γ ([4]; PBMCs from HLA-A2+/CMV positive): significant increase
- internalization by iDCs (confocal microscopy) (iDCs [5]): internalized
- CTL response (dextramer staining) ([6]; monocyte-depleted PBMCs): 5.60%
- CTL response (dextramer staining) ([6]; whole PBMCs, n=3): 8.85%
- binding of 6IAF-conjugated pp65 fusion peptides to DCs (iDCs [7]): bound to iDCs
